Laboratory results as given in patent US7842691B2, “Method for the treatment of myelodysplastic syndromes using cyclopropanecarboxylic acid {2-[1-(3-ethoxy-4-methoxy-phenyl)-2-methanesulfonyl-ethyl]-3-OXO-2,3-dihydro-1 H-isoindol-4-yl}-amide” (Celgene Corporation, priority 2003, dated 2010).

B1: granulocyte colony stimulating factor (protein, UniProt P09919 31-207, looked up)
Granulocyte …: TPLGPASSLPQSFLLKCLEQVRKIQGDGAALQEKLVSECATYKLCHPEELVLLGHSLGIPWAPLSSCPSQALQLAGCLSQLHSGLFLYQGLLQALEGISPELGPTLDTLQLDVADFATTIWQQMEELGMAPALQPTQGAMPAFASAFQRRAGGVLVASHLQSFLEVSYRVLRHLAQP
notes: granulocyte colony stimulating factor, recombinant human

Columns and labels:
[1] = tested on: MDS bone marrow progenitor formation; experiment: MDS vs normal bone marrow progenitor formation in pre-clinical models; format: cell-based
Excerpt: (§1) The pharmacological effects of 3-(3,4-dimethoxy-phenyl)-3-(1-oxo-1,3-dihydro-isoindol-2-yl)-propionamide derive from its action as an inhibitor of cellular response to receptor-initiated trophic signals (e.g., IGF-1, VEGF, cyclooxygenase-2), and other activities.

AML cells = experiment: Mitogenic response to VEGF in AML cells (ligand-induced Akt-phosphorylation); format: cell-based; details: by extinguishing ligand-induced Akt-phosphorylation
Excerpt: as §1

[2] = tested on: production of various cytokines; experiment: In vitro pharmacology studies, effects on production of various cytokines, activity comparison with thalidomide; format: cell-based, human
Procedure: The pharmacological properties of 3-(3,4-dimethoxy-phenyl)-3-(1-oxo-1,3-dihydro-isoindol-2-yl)-propionamide, including activity comparisons with thalidomide, are characterized in in vitro studies. Studies examine the effects of 3-(3,4-dimethoxy-phenyl)-3-(1-oxo-1,3-dihydro-isoindol-2-yl)-propionamide on the production of various cytokines. In addition, a safety pharmacology study of -(3,4-dimethoxy-phenyl)-3-(1-oxo-1,3-dihydro-isoindol-2-yl)-propionamide is conducted in dogs and the effects of the compound on ECG parameters are examined further as part of three repeat-dose toxicity studies in primates.
Inhibition of TNF-α production following LPS-stimulation of human PBMC and human whole blood by 3-(3,4-dimethoxy-phenyl)-3-(1-oxo-1,3-dihydro-isoindol-2-yl)-propionamide is investigated in vitro (Muller et al., Bioorg. Med. Chem. Lett. 9:1625-1630, 1999). The IC50's of 3-(3,4-dimethoxy-phenyl)-3-(1-oxo-1,3-dihydro-isoindol-2-yl)-propionamide for inhibiting production of TNF-α following LPS-stimulation of PBMC and human whole blood is measured.
as §1

MDS patients = details: cited from earlier work; for granulocytopoiesis in treated patients / improvement in hemoglobin or platelet counts: clinical trials of MDS patients

Molecule	granulocytopoiesis in treated patients (MDS patients)	improvement in hemoglobin or platelet counts (MDS patients)	further results
COc1ccc(C(CC(N)=O)N2Cc3ccccc3C2=O)cc1OC (centres unmarked) [3-(3,4-dimethoxy-phenyl)-3-(1-oxo-1,3-dihydro-isoindol-2-yl)-propionamide]			MDS vs normal bone marrow progenitor formation [1]: selectively suppresses MDS vs normal bone marrow progenitor formation; mitogenic response to VEGF (AML cells): abrogates mitogenic response to VEGF in AML cells; generation of inflammatory cytokines [2]: suppresses the generation of inflammatory cytokines
erythropoietin [recombinant human EPO]			patients with sustained improvement in hemoglobin or decrease in transfusion requirement (MDS patients; MDS patients treated with recombinant human EPO): less than 25 % of patients
granulocyte macrophage colony stimulating factor [GM-CSF]	can restore granulocytopoiesis	little or no improvement	
B1	can restore granulocytopoiesis	little or no improvement	
